# From patent US20240374680A1, “PHARMACEUTICAL COMPOSITION FOR TREATMENT OF VIRAL INFECTIONS” (Virenc AB, priority 2021, published 2024)
# Where no end group is shown, it is not given here.
# What was measured:
# Kunjin virus (KUNV) [1] = test: Flavivirus inhibition assay, crystal violet-based plaque assay (Vero cells); format: cell-based; settings: for reduction of viral load: L- or D-PLNC8 αβ (1:1)
# Langat virus (LGTV) [2] = format: biochemical; settings: 2 h
# SARS-CoV-2 = SARS-CoV-2 virus inhibition assay (plaque assay); format: cell-based, Severe Acute Respiratory Syndrome Coronavirus 2; settings: SARS-CoV-2 (1×10^3) exposed 1 h at 37° C., then Vero cells; read-out: concentration for 50% reduction of PFU
# [3] = tested on: Influenza A virus (H1N1/CA09pdm); test: Influenza A virus inhibition assay (plaque assay); format: cell-based; settings: Influenza A virus (1×10^3) pre-treated 1 h at 37° C.; read-out: concentration for 50% reduction of influenza A PFU
# Langat virus (LGTV) [4] = format: cell-based
# [5] = Carboxyfluorescein (CF) release assay; format: biochemical
# Method: Liposomes were prepared by thin film hydration, followed by extrusion^19. Stock solutions of the lipids 1-palmitoyl-2-oleoyl-sn-glycero3-phosphatidylcholine (POPC), 1-palmitoyl-2-oleoyl-sn-glycero-3-phosphoL-serine (POPS) and cholesterol (Chol) were mixed at molar ratio 95:0:5, 65:30:5, 70:0:30, 91:1:8 and 81:11:8. The solvent was slowly evaporated via nitrogen stream, then the vials were dried in a vacuum desiccator overnight. Dry films were hydrated by addition of 1 mL 5(6)-carboxyfluorescein solution. The CF solution, presenting self-quenching concentration of CF, was prepared with 50 mM CF dissolved in 10 mM PB buffer and 90 mM NaCl, followed by pH adjustment. CF solution was dispensed on the lipid cake and incubated for 10 min under gentle shaking (50 min-1 on orbital shaker), followed by 1 min vortexing. The liposomes were extruded 21 times with a mini extruder (Avanti Polar Lipids, Inc.), through a 0.1 um membrane (Nucleapore track-etched hydrophilic membrane). The lipids were purified by gel filtration through a PD Mini Trap G-25 column by elution in PB buffer (10 mM).
# To study peptide efficacy on liposome membrane disruption, the liposome fluorescence was monitored upon peptide addition by microplate reader (Tecan Infinite M1000 Pro, λex=485 nm, λem=520 nm). Liposomes were diluted to a final concentration of 25 μM with 10 mM PB buffer and incubated with PLNC8 α, PLNC8 β and PLNC8 α/β at concentration of 10^−5-10^2 μM in a 96 well plate at a final volume of 200 μL. Due to the self-quenching concentration of carboxyfluorescein (CF) inside the liposomes, any fluorescence of the liposome-peptide system could be attributed to the liposome membrane disruption. Fluorescence was monitored prior to peptide addition (F0), and continuatively for 30 min. Total CF release (FT) was achieved through addition of 1% Triton X-100. Instantaneous CF release (%) was calculated through the formula 100×(F−F0)/(FT−F0), where F is the instantaneous fluorescence.
# human cells = settings: previously shown (ref. 16); cited from earlier work
# Kunjin virus (KUNV) [6] = test: Peptide treatment of KUNV-infected A549 cells (viral mRNA, extracellular virions); settings: A549 infected 1 h, then 10 μM, 48 h; cell culture media
substance,measurement,setting,value
PLNC8 β: peptide of SEQ ID NO:1; statement covers L- and D-enantiomers (FIG. 7) (SVPTSVYTLGIKILWSAYKHRKTIEKSFNKGFYH; also: L- or D-enantiomer covered; listed as Lactobacillus plantarum),"efficiency at eliminating KUNV, single peptides compared","Kunjin virus (KUNV) [1]; 20 μM, L- and D-enantiomers (FIG. 7)",more efficient than PLNC8 α at eliminating KUNV
"SVPTSVYTLGIKILWSAYKHRKTIEKSFNKGFYH, SEQ ID NO:1 [D-PLNC8 β]",permeabilization of the viral envelope (Sytox Green),Langat virus (LGTV) [2],permeabilized
same,IC50,SARS-CoV-2,1400 nM
same,IC50,[3],19000 nM
SVPTSVYTLGIKILWSAYKHRKTIEKSFNKGFYH [L-PLNC8 β],permeabilization of the viral envelope (Sytox Green),Langat virus (LGTV) [2],permeabilization of LGTV
same,decrease of viral load,Langat virus (LGTV) [4],> 99%
same,IC50,SARS-CoV-2,900 to 1000 nM
same,IC50,[3],> 20000 nM
Plantaricin NC8 (PLNC8) αβ [PLNC8 αβ],susceptibility of liposomes (CF release),"[5]; POPC:POPS:Chol (70:0:30), mimicking a eukaryotic plasma membrane",resilient
same,susceptibility of liposomes (CF release),"[5]; POPC:POPS:Chol (81:11:8), mimicking a eukaryotic ER membrane",very susceptible
same,susceptibility of liposomes (CF release),[5]; POPC:POPS:Chol (91:1:8),more susceptible
same,reduction of viral load,"Kunjin virus (KUNV) [1]; 0.1 μM, KUNV MOI 0.1, 0.01, 0.001, 1 h",80%
same,reduction of viral load,"Kunjin virus (KUNV) [1]; 1 μM, KUNV MOI 0.1, 0.01, 0.001, 1 h",95%
same,elimination of virions,"Kunjin virus (KUNV) [1]; ≥10 μM, KUNV MOI 0.1, 0.01, 0.001, 1 h",completely eliminates all virions
same,cytotoxicity towards human cells,human cells,no cytotoxicity towards human cells
same,reduction of extracellular virion load,Kunjin virus (KUNV) [6],70-80%
